In US12378287B2 (priority 2019, dated 2025):

How the values were obtained:
[1] = molecular target: GII.3 VLP; format: binding, norovirus; details: 100 μM peptide on SA chip; for Kd: GII.3 VLP 1, 0.1, 0.01, 0.001 mg/mL, KD calculated from ka and kd; for ka / kd: GII.3 VLP; for ka: association 90 sec; for kd: dissociation 60 sec
Procedure: (§1) The apparatus used was BLItz™ (manufactured by ForteBio). The tip of SA chip (manufactured by ForteBio) was kept in contact with purified water for 1 minute for hydration and was then kept in contact with a 1% BSA aqueous solution for 1 hour for blocking. The SA chip subjected to blocking treatment was set to the measuring unit of the BLItz™ main body, and measurement was performed according to the program shown in Table 16. The peptides of SEQ ID NOs: 103, 167, 205, 263, 283, 288, and 302 were used, and the concentration was adjusted to 100 μM. The concentrations of each of the GII.3 and GII.17 VLPs were adjusted to 1, 0.1, 0.01, and 0.001 mg/mL. The measurement data were analyzed using the attached software, and the KD value was calculated based on the Ka and Kd values.

[2] = molecular target: GII.17 VLP; format: binding, norovirus; details: 100 μM peptide on SA chip; for Kd: GII.17 VLP 1, 0.1, 0.01, 0.001 mg/mL, KD calculated from ka and kd; for ka / kd: GII.17 VLP; for ka: association 90 sec; for kd: dissociation 60 sec
Procedure: as §1

Sequence | Kd [1] | ka [1] | kd [1] | Kd [2] | ka [2] | kd [2]
CKARSARGVS [No.288] | 6.86 nM | 2.09e+06 M⁻¹ s⁻¹ | 0.0143 s⁻¹ | 12 nM | 620000 M⁻¹ s⁻¹ | 0.00747 s⁻¹
VWWGRRISRF [No.302] |  |  |  | 28.4 nM | 2.28e+06 M⁻¹ s⁻¹ | 0.0648 s⁻¹
RSMSLHVSMT [No.283] | 0.909 nM | 7.86e+06 M⁻¹ s⁻¹ | 0.00715 s⁻¹ | 1.39 nM | 994000 M⁻¹ s⁻¹ | 0.000138 s⁻¹
FVWRRRAGLY [No.167] | 1.39 nM | 3.14e+06 M⁻¹ s⁻¹ | 0.00435 s⁻¹ | 0.696 nM | 1.59e+06 M⁻¹ s⁻¹ | 0.00111 s⁻¹
ANYRWSRSIK [No.263] | 57.5 nM | 851000 M⁻¹ s⁻¹ | 0.049 s⁻¹ | 19.1 nM | 140000 M⁻¹ s⁻¹ | 0.00865 s⁻¹
RFLVPVVKVM [No.103] | 8.07 nM | 2.1e+06 M⁻¹ s⁻¹ | 0.017 s⁻¹ | 8.13 nM | 1.38e+06 M⁻¹ s⁻¹ | 0.0112 s⁻¹
FVWSRRTGLY [No.205] | 31.6 nM | 1.03e+06 M⁻¹ s⁻¹ | 0.001 s⁻¹ | 109 nM | 169000 M⁻¹ s⁻¹ | 0.0184 s⁻¹
